Data: US9730939B2, “Heterocyclylamines as PI3K inhibitors” (Incyte Corporation, priority 2011, dated 2017)

Target: PI3Kδ (p110δ/p85α) (Homo sapiens (Human), UniProt O00329)
Test: Example A3 PI3Kδ scintillation proximity assay
Format: biochemical
Settings: comparison of compounds 355-358; assay not given
Description: PI3Kδ Scintillation Proximity Assay
[γ-^33P]ATP (10 mCi/mL) was purchased from PerkinElmer (Waltham, Mass.). […] PI3Kδ (p110δ/p85α) was purchased from Millipore (Bedford, Mass.). ATP, MgCl2, DTT, EDTA, MOPS and CHAPS were purchased from SigmaAldrich (St. Louis, Mo.). Wheat Germ Agglutinin (WGA) YSi SPA Scintillation Beads was purchased from GE healthcare life sciences (Piscataway, N.J.).
The final concentration of DMSO in the assay was 0.5%. The PI3K assays were carried out at room temperature in 20 mM MOPS, pH 6.7, 10 mM MgCl2, 5 mM DTT and CHAPS 0.03%. Reactions were initiated by the addition of ATP, the final reaction mixture consisted of 20 μM PIP2, 20 μM ATP, 0.2 μCi [γ-^33P]

Chain of PI3Kδ (p110δ/p85α) (O00329 whole entry): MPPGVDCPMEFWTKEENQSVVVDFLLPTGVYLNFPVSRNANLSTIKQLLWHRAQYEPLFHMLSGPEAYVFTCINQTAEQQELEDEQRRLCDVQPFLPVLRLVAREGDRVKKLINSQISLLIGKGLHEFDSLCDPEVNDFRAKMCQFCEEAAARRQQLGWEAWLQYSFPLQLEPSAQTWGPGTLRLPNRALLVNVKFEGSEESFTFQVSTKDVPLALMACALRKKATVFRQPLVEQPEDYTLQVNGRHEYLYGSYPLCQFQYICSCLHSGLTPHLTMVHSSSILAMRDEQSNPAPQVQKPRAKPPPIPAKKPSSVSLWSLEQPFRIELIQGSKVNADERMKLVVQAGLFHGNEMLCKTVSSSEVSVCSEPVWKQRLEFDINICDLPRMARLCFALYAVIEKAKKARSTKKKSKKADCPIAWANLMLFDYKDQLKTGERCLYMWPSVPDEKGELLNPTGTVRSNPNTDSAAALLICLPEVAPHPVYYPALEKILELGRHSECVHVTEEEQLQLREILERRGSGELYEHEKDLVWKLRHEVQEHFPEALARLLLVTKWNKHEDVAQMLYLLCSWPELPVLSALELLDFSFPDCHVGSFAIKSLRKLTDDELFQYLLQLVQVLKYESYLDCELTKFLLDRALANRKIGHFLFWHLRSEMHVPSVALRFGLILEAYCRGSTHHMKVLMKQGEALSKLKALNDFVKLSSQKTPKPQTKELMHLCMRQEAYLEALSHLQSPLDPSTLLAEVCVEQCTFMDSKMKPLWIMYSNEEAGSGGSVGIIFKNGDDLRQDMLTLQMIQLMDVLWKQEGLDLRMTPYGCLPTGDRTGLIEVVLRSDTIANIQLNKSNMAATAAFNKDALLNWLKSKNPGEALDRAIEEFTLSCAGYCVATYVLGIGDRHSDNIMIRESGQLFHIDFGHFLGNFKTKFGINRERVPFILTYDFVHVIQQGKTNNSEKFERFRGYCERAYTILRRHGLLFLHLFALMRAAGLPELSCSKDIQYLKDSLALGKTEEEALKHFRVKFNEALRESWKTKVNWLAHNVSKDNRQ
Chain of PI3Kδ (p110δ/p85α) (P27986 whole entry partner): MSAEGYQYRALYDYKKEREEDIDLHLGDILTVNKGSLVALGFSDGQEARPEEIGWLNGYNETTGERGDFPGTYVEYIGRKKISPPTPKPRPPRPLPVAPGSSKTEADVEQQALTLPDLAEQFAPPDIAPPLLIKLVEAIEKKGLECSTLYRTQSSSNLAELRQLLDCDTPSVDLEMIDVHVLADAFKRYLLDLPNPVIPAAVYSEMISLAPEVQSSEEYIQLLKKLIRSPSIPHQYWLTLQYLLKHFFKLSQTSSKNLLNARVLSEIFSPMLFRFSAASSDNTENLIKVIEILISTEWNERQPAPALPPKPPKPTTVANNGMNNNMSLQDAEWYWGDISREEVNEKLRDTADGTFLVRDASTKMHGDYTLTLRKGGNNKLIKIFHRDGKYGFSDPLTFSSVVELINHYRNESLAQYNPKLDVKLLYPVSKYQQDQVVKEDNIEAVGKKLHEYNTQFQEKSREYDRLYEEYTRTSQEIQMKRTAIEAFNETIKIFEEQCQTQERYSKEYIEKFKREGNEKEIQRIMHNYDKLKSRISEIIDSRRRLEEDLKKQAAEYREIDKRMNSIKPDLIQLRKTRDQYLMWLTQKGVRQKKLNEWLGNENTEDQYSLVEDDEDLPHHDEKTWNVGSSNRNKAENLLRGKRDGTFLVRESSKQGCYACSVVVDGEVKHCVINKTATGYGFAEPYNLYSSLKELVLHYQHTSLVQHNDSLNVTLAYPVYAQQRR

SMILES: CCOc1c(C(C)n2nc(C)c3c(N)ncnc32)cc(Cl)c(F)c1C1CNC(=O)O1 (single isomer, unassigned) [Example 357, 5-{3-[1-(4-amino-3-methyl-1H-pyrazolo[3,4-d]pyrimidin-1-yl)ethyl]-5-chloro-2-ethoxy-6-fluorophenyl}-1,3-oxazolidin-2-one]
- relative activity of the separated enantiomers (peaks 1-4): most active enantiomer
